Each block holds one compound with its values, some of them ahead of it. Calls of active or inactive are those of the source. The rule behind the calls is not given here.
Columns and labels:
[1] = target: T1, [Pyruvate dehydrogenase (acetyl-transferring)] kinase isozyme 2, mitochondrial (Homo sapiens, UniProt Q15119); test: Inhibition of E2-activated human PDHK2
NCI-H1975 [2] = test: Inhibition of PDK in human NCI-H1975 cells assessed as reduction in PDH phosphorylation at 10 uM after 12 hrs by Western blot analysis; format: cell-based
[3] = Inhibition of porcine PDK assessed as activation of pyruvate dehydrogenase complex measured after 3 mins; design: species or system Sus scrofa
A-375 = test: Antiproliferative activity against human A375 cells assessed as reduction in cell viability after 72 hrs by MTT assay; format: functional
A549 = test: Antiproliferative activity against human A549 cells assessed as reduction in cell viability after 72 hrs by MTT assay; format: functional
[4] = Permeability across human Caco2 cells by liquid scintillation counting method; format: ADME, cell-based; details: caco-2
[5] = target: T2, [Pyruvate dehydrogenase (acetyl-transferring)] kinase isozyme 1, mitochondrial (Homo sapiens, UniProt Q15118); test: Inhibition of recombinant human His-tagged PDK1 expressed in Escherichia coli using PDH E1 as substrate measured after 30 mins by Kinase-Glo luminescence assay
T2 sequence (Q15118 whole entry): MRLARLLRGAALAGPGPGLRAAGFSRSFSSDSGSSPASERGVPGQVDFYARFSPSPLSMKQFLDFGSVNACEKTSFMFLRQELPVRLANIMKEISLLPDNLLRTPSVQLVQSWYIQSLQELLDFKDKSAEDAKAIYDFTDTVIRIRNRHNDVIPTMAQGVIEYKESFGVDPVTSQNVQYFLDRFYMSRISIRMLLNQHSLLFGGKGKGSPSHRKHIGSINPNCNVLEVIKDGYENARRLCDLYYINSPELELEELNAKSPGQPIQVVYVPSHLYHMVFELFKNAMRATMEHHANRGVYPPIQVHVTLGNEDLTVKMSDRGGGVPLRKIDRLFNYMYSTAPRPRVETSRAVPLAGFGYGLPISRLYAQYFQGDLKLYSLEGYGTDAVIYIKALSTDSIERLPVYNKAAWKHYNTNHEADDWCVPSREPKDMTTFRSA

[6] = target: T2, [Pyruvate dehydrogenase (acetyl-transferring)] kinase isozyme 1, mitochondrial; test: Binding affinity to recombinant human His-tagged PDK1 expressed in Escherichia coli by isothermal calorimetry
NCI-H1975 [7] = test: Antiproliferative activity against human NCI-H1975 cells assessed as reduction in cell viability after 72 hrs by MTT assay; format: functional
MCF7 = test: Antiproliferative activity against human MCF7 cells assessed as reduction in cell viability after 72 hrs by MTT assay; format: functional
[8] = target: [Pyruvate dehydrogenase (acetyl-transferring)] kinase isozyme 4, mitochondrial (Homo sapiens, UniProt Q16654); test: Inhibition of recombinant human His-tagged PDK4 expressed in Escherichia coli using PDH E1 as substrate measured after 30 mins by Kinase-Glo luminescence assay
[Pyruvate dehydrogenase (acetyl-transferring)] kinase isozyme 4, mitochondrial, sequence (Q16654 whole entry): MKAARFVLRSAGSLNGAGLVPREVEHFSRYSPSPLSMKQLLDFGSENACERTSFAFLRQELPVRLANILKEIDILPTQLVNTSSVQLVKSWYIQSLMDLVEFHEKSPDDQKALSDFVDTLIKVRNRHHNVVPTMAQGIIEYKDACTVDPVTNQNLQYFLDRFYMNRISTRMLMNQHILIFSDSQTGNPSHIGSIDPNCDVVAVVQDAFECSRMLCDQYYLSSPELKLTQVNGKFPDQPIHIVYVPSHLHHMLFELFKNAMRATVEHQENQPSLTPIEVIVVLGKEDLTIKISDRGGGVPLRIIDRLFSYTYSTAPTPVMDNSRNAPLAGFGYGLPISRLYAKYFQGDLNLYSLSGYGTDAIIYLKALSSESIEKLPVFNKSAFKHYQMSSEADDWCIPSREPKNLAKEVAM

[9] = target: T1, [Pyruvate dehydrogenase (acetyl-transferring)] kinase isozyme 2, mitochondrial; test: Inhibition of recombinant human His-tagged PDK2 expressed in Escherichia coli using PDH E1 as substrate measured after 30 mins by Kinase-Glo luminescence assay
Heat shock protein HSP90 = Heat shock protein HSP90 (Homo sapiens, UniProt P07900+P08238); test: Inhibition of human HSP90 measured after 30 mins by fluorescence polarization assay; format: protein assay
[10] = Antiproliferative activity against human BEAS2B cells assessed as reduction in cell viability after 72 hrs by MTT assay; format: cell-based; details: BEAS-2B cells, read-out: GC50
HepG2 = test: Antiproliferative activity against human HepG2 cells assessed as reduction in cell viability after 72 hrs by MTT assay; format: functional
HCT-116 = test: Antiproliferative activity against human HCT116 cells assessed as reduction in cell viability after 72 hrs by MTT assay; format: functional
NCI-H1650 = test: Antiproliferative activity against human NCI-H1650 cells assessed as reduction in cell viability after 72 hrs by MTT assay; format: functional
[11] = target: [Pyruvate dehydrogenase (acetyl-transferring)] kinase isozyme 3, mitochondrial (Homo sapiens, UniProt Q15120); test: Inhibition of recombinant human His-tagged PDK3 expressed in Escherichia coli using PDH E1 as substrate measured after 30 mins by Kinase-Glo luminescence assay
[Pyruvate dehydrogenase (acetyl-transferring)] kinase isozyme 3, mitochondrial, sequence (Q15120 whole entry): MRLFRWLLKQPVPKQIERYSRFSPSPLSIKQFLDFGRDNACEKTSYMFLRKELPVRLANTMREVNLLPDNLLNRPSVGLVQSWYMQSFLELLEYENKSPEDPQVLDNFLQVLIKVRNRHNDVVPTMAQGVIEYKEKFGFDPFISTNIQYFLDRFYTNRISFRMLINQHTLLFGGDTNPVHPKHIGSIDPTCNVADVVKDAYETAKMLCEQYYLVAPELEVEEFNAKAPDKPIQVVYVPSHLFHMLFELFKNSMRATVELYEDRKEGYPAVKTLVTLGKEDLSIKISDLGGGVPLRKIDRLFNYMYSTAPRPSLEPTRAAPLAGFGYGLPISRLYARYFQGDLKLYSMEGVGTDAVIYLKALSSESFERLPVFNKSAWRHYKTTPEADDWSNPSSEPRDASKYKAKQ

SMILES: CC(C)CNS(=O)(=O)c1ccc(OCC(=O)N(Cc2ccccc2)Cc2ccccc2)cc1
Activity (A-375): Dose-dependent effect
GC50 (A-375): 12.3 µM
Activity (A549): Dose-dependent effect
GC50 (A549): 17.5 µM
Papp [4]: 1.14 ×10⁻⁶ cm/s
IC50 [5]: 0.89 µM
Kd [6]: 1.49 µM
Activity (NCI-H1975 [7]): Dose-dependent effect
GC50 (NCI-H1975 [7]): >20 µM
Activity (MCF7): Dose-dependent effect
GC50 (MCF7): >20 µM
IC50 [8]: 6.9 µM
IC50 [9]: 5.9 µM
IC50 (Heat shock protein HSP90): 3.58 µM
GI50 at 72 h [10]: > 20 µM
Activity (HepG2): Dose-dependent effect
GC50 (HepG2): 18.2 µM
Activity (HCT-116): Dose-dependent effect
GC50 (HCT-116): >20 µM
Activity (NCI-H1650): Dose-dependent effect
GC50 (NCI-H1650): >20 µM
reduction in PDH phosphorylation (qualitative) (NCI-H1975 [2]): Active
EC50 [3]: 1.4 µM
IC50 [11]: 4.9 µM

SMILES: Cc1cnc(Cl)nc1-c1ccc(N(Cc2ccc(CNC(=O)C(F)F)cc2)C(=O)c2ccc(O)cc2O)cc1
EC50 [3]: 0.12 µM

SMILES: CC(C)Cc1ccc(C(C)C(=O)O)cc1 (configuration not stated) [IBUPROFEN]
Papp [4]: 47.2 ×10⁻⁶ cm/s

SMILES: COc1ccc(-c2nnn(CC(=O)Nc3cccc(F)c3)n2)cc1
reduction in PDH phosphorylation (qualitative) (NCI-H1975 [2]): Active
EC50 [3]: 6.9 µM

SMILES: O=C(Nc1ccc(Cl)cc1C(=O)N1CCCC[C@@H]1CCO)c1ccc(Cl)cc1Cl
reduction in PDH phosphorylation (qualitative) (NCI-H1975 [2]): Active
EC50 [3]: 8.4 µM

SMILES: O=C(c1ccccc1)C(Cl)Cl
reduction in PDH phosphorylation (qualitative) (NCI-H1975 [2]): Active
EC50 [3]: > 1000 µM

Continued, in another order:

IC50 [1]: 0.0078 µM
SMILES: C[C@@H]1CN(C(=O)[C@](C)(O)C(F)(F)F)[C@@H](C)CN1C(=O)c1ccc(C#N)cc1

IC50 [1]: 0.08 µM
SMILES: CN(C)C(=O)c1ccc(S(=O)(=O)c2ccc(NC(=O)[C@@](C)(O)C(F)(F)F)c(Cl)c2)cc1

EC50 [3]: 5.2 µM
SMILES: COc1ccc(C(=O)CSc2nnc(CNc3ccccc3OC)n2-c2ccccc2)cc1
reduction in PDH phosphorylation (qualitative) (NCI-H1975 [2]): Active

EC50 [3]: 5.9 µM
SMILES: CCOc1ccc([C@@H]2C(C(=O)Nc3cccnc3)=C(C)Nc3nc(CCCO)nn32)cc1
reduction in PDH phosphorylation (qualitative) (NCI-H1975 [2]): Active

EC50 [3]: 4.6 µM
SMILES: Cc1ccc(NC(=O)CSc2c[nH]c(-c3ccccc3O)n2)cc1
reduction in PDH phosphorylation (qualitative) (NCI-H1975 [2]): Active

EC50 [3]: 3.5 µM
SMILES: CC(=O)N[C@@H](Cc1c[nH]c2ccccc12)C(=O)NCCOc1ccc(C2CCCCC2)cc1
reduction in PDH phosphorylation (qualitative) (NCI-H1975 [2]): Active

Papp [4]: 0.96 ×10⁻⁶ cm/s
IC50 [5]: 5.9 µM
Kd [6]: 3.5 µM
IC50 [8]: 14.7 µM
IC50 [9]: 10.5 µM
IC50 (Heat shock protein HSP90): 2.7 µM
EC50 [3]: 1.6 µM
IC50 [11]: 8.3 µM
SMILES: C[C@H]1CCc2c(sc3nc(SCCN4CCCC4)n(N)c(=O)c23)C1
Activity (A-375): Dose-dependent effect
GC50 (A-375): >20 µM
Activity (A549): Dose-dependent effect
GC50 (A549): >20 µM
Activity (NCI-H1975 [7]): Dose-dependent effect
GC50 (NCI-H1975 [7]): 15.6 µM
Activity (MCF7): Dose-dependent effect
GC50 (MCF7): >20 µM
GI50 at 72 h [10]: > 20 µM
Activity (HepG2): Dose-dependent effect
GC50 (HepG2): >20 µM
Activity (HCT-116): Dose-dependent effect
GC50 (HCT-116): >20 µM
Activity (NCI-H1650): Dose-dependent effect
GC50 (NCI-H1650): 16.3 µM
reduction in PDH phosphorylation (qualitative) (NCI-H1975 [2]): Active

Papp [4]: 0.21 ×10⁻⁶ cm/s
SMILES: COc1cccc2c1C(=O)c1c(O)c3c(c(O)c1C2=O)C[C@@](O)(C(=O)CO)C[C@@H]3O[C@H]1C[C@H](N)[C@H](O)[C@H](C)O1 [DOXORUBICIN]
